Entries after “also recorded” stand apart in the source; their conditions may differ. Read-outs that look alike come from different tables or passages of the source.
Experiments:
518A2 melanoma cells [1] = assay: MTT assay, 518A2 melanoma cells; format: cell-based, human; details: for IC50: Homo sapiens, MTT, mean ± SD of four experiments
Description: (§1) HT-29 (ACC-299), HCT-116 (ACC-581) and DLD-1 (ACC-278) colon carcinoma, MCF-7 (ACC-115) breast carcinoma, KB-V1 (ACC-149), 518A2 (Department of Radiotherapy and Radiobiology, University Hospital Vienna) melanoma and Ea.Hy926 (ATCC no. CRL-2922) HUVEC derived endothelial hybrid cells line were grown in Dulbecco’s Modified Eagle Medium (DMEM; Biochrom), high glucose supplemented with 10% (v/v) fetal bovine serum (FBS; Biochrom.) and 1% (v/v) Antibiotic-Antimycotic solution (anti-anti; Thermo Scientific). HDFa human dermal fibroblasts (ATCC: PCS-201-012™) were grown in DMEM supplemented with 10% FBS, 1% anti-anti and 2 mM glutamine. The cells were incubated at 37 °C, 5% CO2, 95% humidified atmosphere. By repeated addition of topotecan or vinblastine at the maximum tolerated dose to the cell medium of MCF-7 and KB-V1 cells, the cells were rendered multidrug-resistant, indicated as MCF-7^Topo and KB-V1^Vbl, respectively. They were serially passaged following trypsinization by using 0.05% trypsin/0.02% EDTA (Biochrom). Mycoplasma contamination was routinely monitored, and only mycoplasma–free cultures were used.
(§2) MTT [3-(4,5-dimethylthiazol-2-yl)-2,5-diphenyltetrazolium bromide] (ABCR) was used to determine the cytotoxicity of test compounds as previously described. Briefly, HDFa human dermal fibroblasts and Ea.Hy926 endothelial hybrid cells (both 1 × 10^5 cells/mL, 100 µL/well), 518A2 melanoma, KB-V1^Vbl cervix carcinoma, MCF-7^Topo breast carcinoma, HT-29, DLD-1 and HCT-116 colon carcinoma (all 5 × 10^4 cells/mL, 100 µL/well) were grown in 96-well culture plates for 24 h. Then, various concentrations of the test compounds were added and the cells were incubated for 24-72 h at 37 °C. After adding 12.5 µL of a 0.5% MTT solution in PBS (final concentration 0.05%) to cell medium, microplates were incubated for 2 h and subsequently swiftly turned to discard the medium. The precipitate of formazan crystals was then dissolved in a 10% solution of SDS in DMSO containing 0.6% acetic acid. To ensure complete dissolution of formazan, microplates were incubated for at least 4 h at 37 °C. Finally, the absorbance at λ = 570 nm (formazan) and 630 nm (background) was measured using a microplate reader (Tecan F200). All experiments were carried out in quadruplicate and the percentage of viable cells was calculated as the mean ± SD with controls set to 100%. Selected graphs of MTT assays can be found in the Supporting Information (Figure S8).

[2] = test system: HCT-116 colon carcinoma cells; assay: MTT assay, HCT-116 colon carcinoma cells; format: cell-based; details: Homo sapiens, HCT-116, read-out: IC50 HCT-116 (72 h)
Description: as §1, §2

[3] = test system: KB-V1^Vbl cervix carcinoma cells; assay: MTT assay, KB-V1^Vbl cervix carcinoma cells; format: cell-based; details: Homo sapiens, read-out: IC50 KB-V1^Vbl (72 h)
Description: as §1, §2

[4] = biological target: T1, purified pig brain tubulin (Sus scrofa, UniProt P02550+P02554); assay: Turbidimetric cell-free tubulin polymerization assay; format: biochemical; details: 10 µM, 340 nm
T1 construct: using purified pig brain tubulin; from tissue; host or cells: pig brain
Description: An amount of 50 µL of Brinkley’s buffer 80 (BRB80) supplemented with 20% glycerol and 3 mM GTP was given in a black 96-well half-area plate with clear bottom. Then, test compounds 4d–f (final concentration: 5 µM, or 10 µM) or vehicle (DMSO) were added. After adding 50 µL tubulin in BRB80 (10 mg/mL) was pipetted in the wells and immediately placed in a pre-heated microplate reader (Tecan). The polymerization was determined turbidimetrically at 37 °C by measuring the absorption at 340 nm for 120 min in intervals of 5 min. Values were normally distributed for each group (Shapiro–Wilk test, p > 0.05) and there was homogeneity of variance (Levene’s test, p > 0.05).

recombinant human HDAC1 = biological target: T2, recombinant human HDAC1 (Homo sapiens, UniProt Q13547); assay: HDAC1 inhibitor screening assay (fluorometric); format: biochemical; details: recombinant human HDAC1, mean ± SD of two experiments; read-out: HDAC inhibition IC50, HDAC1
T2 construct: purchased Cayman Chemicals
Description: The HDAC inhibitory potential of the novel compounds was determined by utilizing the deacetylase activity of recombinant human HDAC1 (HDAC1 Inhibitor Screening Assay Kit; Cayman Chemicals) or HDAC6 (HDAC6 Inhibitor Screening Kit (Fluorometric); Biovision) towards the corresponding synthetic acetylated-peptide substrates resulting in the release of a fluorescent product. The assays were performed according to manufacturer’s description of the in commercially available assay kits. […] The IC50 values were derived from dose-response curves and are expressed as the means ± SD of two independent experiments.

518A2 melanoma cells [5] = assay: Cell cycle analysis by flow cytometry after PI staining; format: cell-based, human; details: 24 h; for cell cycle arresting effect: 518A2 cells, FACS
Description: The 518A2 melanoma cells (3 mL/well; 5 × 10^4 cells/mL) were grown on 6-well tissue culture plates for 24 h. After treatment with 4d (150, and 200 nM), 4e (0.8, and 1 µM), 4f (2, and 3 µM), or DMSO (control) for another 24 h, cells were fixed (70% EtOH, 24 h, 4 °C), washed with PBS and incubated with propidium iodide (PI; Carl Roth) staining solution (50 µg/mL PI, 0.1% sodium citrate, 50 µg/mL RNase A in PBS) for 30 min at 37 °C. […] The percentages of cells in the different phases of the cell cycle (G1, S and G2/M phase) were determined using the CXP Analysis software (Beckmann Coulter). The percentage of apoptotic cells was derived from sub-G1 peaks. Data was normally distributed for each group (Shapiro–Wilk test, p > 0.05). Since homogeneity of variance (Levene’s test, p < 0.05) was violated, a correction was calculated for Anova (Welch test).

[6] = 518A2, read-out: IC50 518A2 (72 h), 72 h
[7] = 518A2, 24 h, read-out: IC50 518A2 (24 h)

T1 sequence (P02554 whole entry): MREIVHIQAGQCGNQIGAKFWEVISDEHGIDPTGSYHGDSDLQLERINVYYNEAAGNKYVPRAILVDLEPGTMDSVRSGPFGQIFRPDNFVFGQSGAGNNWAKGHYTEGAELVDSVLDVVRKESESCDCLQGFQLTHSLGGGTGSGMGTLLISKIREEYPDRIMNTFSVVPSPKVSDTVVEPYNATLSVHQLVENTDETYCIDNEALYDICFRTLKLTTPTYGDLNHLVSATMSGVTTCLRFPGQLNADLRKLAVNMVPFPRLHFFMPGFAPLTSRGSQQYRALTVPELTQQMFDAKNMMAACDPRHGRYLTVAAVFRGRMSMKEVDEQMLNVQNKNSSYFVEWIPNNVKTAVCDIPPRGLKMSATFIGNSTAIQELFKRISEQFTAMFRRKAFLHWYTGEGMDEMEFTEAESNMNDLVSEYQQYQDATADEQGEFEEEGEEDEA
T1 sequence (P02550 whole entry): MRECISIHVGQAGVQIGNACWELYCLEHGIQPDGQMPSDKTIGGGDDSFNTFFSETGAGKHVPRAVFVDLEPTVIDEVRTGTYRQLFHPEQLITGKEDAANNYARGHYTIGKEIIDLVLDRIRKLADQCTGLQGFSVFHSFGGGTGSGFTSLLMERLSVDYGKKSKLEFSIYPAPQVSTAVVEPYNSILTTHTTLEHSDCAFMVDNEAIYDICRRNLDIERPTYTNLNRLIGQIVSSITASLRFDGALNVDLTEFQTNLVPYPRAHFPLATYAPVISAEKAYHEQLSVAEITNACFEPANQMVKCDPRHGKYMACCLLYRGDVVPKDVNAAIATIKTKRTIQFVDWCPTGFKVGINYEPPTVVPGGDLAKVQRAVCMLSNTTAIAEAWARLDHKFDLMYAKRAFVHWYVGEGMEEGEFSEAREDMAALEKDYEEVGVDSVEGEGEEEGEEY
T2 sequence (Q13547 whole entry): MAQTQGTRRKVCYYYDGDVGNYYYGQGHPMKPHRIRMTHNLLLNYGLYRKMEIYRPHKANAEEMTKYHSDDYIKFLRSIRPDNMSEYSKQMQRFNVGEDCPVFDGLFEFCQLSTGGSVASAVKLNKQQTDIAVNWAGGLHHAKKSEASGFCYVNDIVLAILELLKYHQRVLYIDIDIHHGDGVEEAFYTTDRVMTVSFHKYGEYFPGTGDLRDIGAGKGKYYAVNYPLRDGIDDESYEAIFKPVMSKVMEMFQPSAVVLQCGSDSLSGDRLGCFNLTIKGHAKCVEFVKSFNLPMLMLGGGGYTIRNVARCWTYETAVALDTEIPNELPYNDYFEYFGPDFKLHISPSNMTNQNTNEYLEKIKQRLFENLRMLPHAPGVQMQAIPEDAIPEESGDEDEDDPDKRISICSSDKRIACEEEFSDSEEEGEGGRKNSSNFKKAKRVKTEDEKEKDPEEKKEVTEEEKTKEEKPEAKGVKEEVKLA

SMILES | IC50 (518A2 melanoma cells [1]; [6]) | IC50 (518A2 melanoma cells [1]; [7]) | IC50 [2] | IC50 [3] | inhibition of tubulin polymerization [4] | IC50 (recombinant human HDAC1) | cell cycle arresting effect (518A2 melanoma cells [5]) | further results
COc1ccc(-c2ocnc2-c2cc(Br)c(OC)c(OC)c2)cc1OCCCC(=O)NO [4d, N-Hydroxy-4-[1-methoxy-4-(4’-(3’’-bromo-4’’,5’’-dimethoxyphenyl)oxazol-5’-yl)-2-phenoxy]butanamide] | 110 ± 10 nM | 710 ± 50 nM | 130 ± 10 nM | 480 ± 60 nM | inhibited the polymerization of pig brain tubulin nearly completely; also recorded: significant inhibition of tubulin polymerization | 4000 ± 100 nM | accumulation of 518A2 cells in G2/M phase | IC50 after 72 h compared with IC50 after 24 h (518A2 melanoma cells [1]; 518A2 melanoma cells, fold lower): about eight-fold; cells in G1 (518A2 melanoma cells [5]; 0.2 µM): 33.9 ± 3.4%; cells in G2/M (518A2 melanoma cells [5]; 0.2 µM): 35.4 ± 2.4%; cells in S (518A2 melanoma cells [5]; 0.2 µM): 16.3 ± 1.1%; cells in Sub-G1 (518A2 melanoma cells [5]; 0.2 µM): 14.4 ± 2.8%
COc1ccc(-c2ocnc2-c2cc(Br)c(OC)c(OC)c2)cc1OCCCCC(=O)NO [4e, N-Hydroxy-5-[1-methoxy-4-(4’-(3’’-bromo-4’’,5’’-dimethoxyphenyl)oxazol-5’-yl)-2-phenoxy]pentanamide] | 800 ± 70 nM | 2400 ± 300 nM | 2200 ± 300 nM | 2000 ± 300 nM | merely moderate inhibitory effect | 3800 ± 100 nM | accumulation of 518A2 cells in G2/M phase | cells in G1 (518A2 melanoma cells [5]; 0.8 µM): 43.1 ± 1.3%; cells in G2/M (518A2 melanoma cells [5]; 0.8 µM): 32.6 ± 1.7%; cells in S (518A2 melanoma cells [5]; 0.8 µM): 19.2 ± 0.7%; cells in Sub-G1 (518A2 melanoma cells [5]; 0.8 µM): 5.1 ± 1.2%; cells in G1 (518A2 melanoma cells [5]; 1 µM): 35.4 ± 1.1%; cells in G2/M (518A2 melanoma cells [5]; 1 µM): 34.9 ± 3.5%; cells in S (518A2 melanoma cells [5]; 1 µM): 19.0 ± 0.3%; cells in Sub-G1 (518A2 melanoma cells [5]; 1 µM): 10.8 ± 4.4%
COc1ccc(-c2ocnc2-c2cc(Br)c(OC)c(OC)c2)cc1OCCCCCC(=O)NO [4f, N-Hydroxy-6-[1-methoxy-4-(4’-(3’’-bromo-4’’,5’’-dimethoxyphenyl)oxazol-5’-yl)-2-phenoxy]hexanamide] | 6400 ± 400 nM | 7600 ± 200 nM | 6300 ± 400 nM | 7100 ± 200 nM | virtually none | 490 ± 50 nM | induced a G1 phase arrest | cells in G1 (518A2 melanoma cells [5]; 2 µM): 53.9 ± 0.8%; cells in G2/M (518A2 melanoma cells [5]; 2 µM): 22.2 ± 0.5%; cells in S (518A2 melanoma cells [5]; 2 µM): 18.3 ± 0.7%; cells in Sub-G1 (518A2 melanoma cells [5]; 2 µM): 5.6 ± 0.8%; cells in G1 (518A2 melanoma cells [5]; 3 µM): 54.2 ± 0.5%; cells in G2/M (518A2 melanoma cells [5]; 3 µM): 22.5 ± 0.3%; cells in S (518A2 melanoma cells [5]; 3 µM): 16.9 ± 0.6%; cells in Sub-G1 (518A2 melanoma cells [5]; 3 µM): 6.3 ± 0.9%
